Source: patent publication US5573999A, “β-substituted cinnamic acid derivative” (BASF Aktiengesellschaft, priority 1991, dated 1996)

Columns and labels:
[1] = test system: mitochondrial respiration; assay: Inhibition of mitochondrial respiration (rate of reduction of cytochrome c in isolated mitochondria), yeast; format: biochemical, Saccharomyces cerevisiae; conditions: DMSO control
Source text: In order to determine the effect of the compounds according to the invention on mitochondrial respiration it is first necessary to isolate the mitochondria from the organisms being investigated. For this, in the case of the yeast Saccharomyces cerevisiae, the cells in a 30 to 40% strength suspension of the yeast in an aqueous solution of 0.6M mannitol+0.01M tris[hydroxymethyl]-aminomethane+0.002M disodium ethylenediaminetetraacetate (pH 6.8) are disrupted in a glass bead mill, and the extract is fractionated by differential centrifugation at 1000× g and 12000× g. The mitochondria are in the pellet from the 12000× g centrifugation.
(§1) Used as control is a mixture with the equivalent amount of pure DMSO. The inhibition at the concentration of agent in each case is then calculated as follows [formula] where ΔE is the change in extinction, at is the change in time, [formula] is the reaction rate for the control and [formula] is the reaction rate for the sample x.
(§2) The inhibition was determined in each case at a test substance concentration of 1.8/10^-5mol/l .

[2] = test system: mitochondrial respiration; assay: Inhibition of mitochondrial respiration (rate of reduction of cytochrome c in isolated mitochondria), phytopathogenic fungus; format: biochemical, Drechslera sorokiniana; conditions: DMSO control
Source text: (§3) It is also possible similarly to isolate mitochondria from other organisms, e.g. from the phytopathogenic fungus Drechslera sorokiniana (synonym: Helminthosporium sativum), from the dermatophyte Trichophyton mentagrophytes, which is a human pathogen, and, for example, from the house fly (Musca domestica) as insect or from the spider mite Tetranychus urticae.
as §1, §2

[3] = test system: mitochondrial respiration; assay: Inhibition of mitochondrial respiration (rate of reduction of cytochrome c in isolated mitochondria), house fly; format: biochemical, Musca domestica; conditions: DMSO control
Source text: as §3, §1, §2

Plasmopara viticola = assay: Activity against Plasmopara viticola on potted vines; format: in vivo; conditions: aqueous dispersion containing 250 ppm active ingredient, infected 8 days after spraying
Protocol: Leaves of potted vines of the Muller Thurgau variety were sprayed with an aqueous liquor which contained 80% of active ingredient and 20% of emulsifier in dry matter. To assess the duration of action of the active ingredient, after the sprayed-on layer had dried the plants were placed in a greenhouse for 8 days. The leaves were then infected with a suspension of Plasmopara viticola zoospores. The vines were then placed first in a chamber saturated with water vapor at 24° C. for 48 hours and then in a greenhouse at from 20° to 30° C. for 5 days. After this, to speed up sporangiophore discharge, the plants were again placed in the humidity chamber for 16 hours. The extent of fungus attack was then assessed on the undersides of the leaves.

[4] = test system: wheat mildew (Erysiphe graminis var. tritici); assay: Activity against wheat mildew on wheat seedlings; format: in vivo; conditions: aqueous dispersion containing 250 ppm active ingredient, assessed after 7 days
Protocol: Leaves of pot-grown wheat seedlings of the Fruhgold variety were sprayed with an aqueous liquor which contained 80% of active ingredient and 20% of emulsifier in dry matter and, 24 hours after the sprayed-on layer had dried, were dusted with spores of wheat mildew (Erysiphe graminis var. tritici). The test plants were then placed in a greenhouse at from 20° to 22° C. and from 75 to 80% relative humidity. The extent of mildew spread was assessed after 7 days.

Pyricularia oryzae = format: in vivo; conditions: aqueous dispersion containing 250 ppm active ingredient; rice seedlings, protective, assessed after 6 days

SMILES	% inhibition of respiration at 1.8 × 10^-5 mol/l test substance, Saccharomyces cerevisiae [1]	% inhibition of respiration at 1.8 × 10^-5 mol/l test substance, Drechslera sorokiniana [2]	% inhibition of respiration at 1.8 × 10^-5 mol/l test substance, Musca domestica [3]	fungal attack, Plasmopara viticola (Plasmopara viticola)	fungal attack, wheat mildew [4]	fungal attack, Pyricularia oryzae (Pyricularia oryzae)
O=C(C=C(c1ccccc1)c1ccccc1)N1CCOCC1 [A, morpholide of β-phenylcinnamic acid, reference compound]	2%	0%	5%	35%	45%	60%
CO/N=C(\C)c1ccc(OCc2ccccc2/C(=C\C(=O)OC)OC)c(C)c1 [Compound 1a.72, methyl (E)-β-methoxy-2-[2-methyl-4-(1-methoximinoethyl)phenoxymethyl]cinnamate]	98%	100%	94%	10%	15%	15%
COC(=O)/C=C(/OC)c1ccccc1COc1nc(-c2ccccc2)cs1 [Compound 1a.181, methyl (E)-β-methoxy-2-(4-phenyl-2-thiazolyloxymethyl)cinnamate]	99%					15%
COC(=O)/C=C(/OC)c1ccccc1/C=C\c1ccccc1C [Compound 1a.248]	95%				15%	15%
COC(=O)/C=C(/OC)c1ccccc1/C=C/c1coc(-c2ccc(Cl)cc2)n1 [Compound 1a.302]	97%		96%			15%
COC(=O)/C=C(/OC)c1ccccc1/C=C/c1csc(-c2ccc(Cl)cc2)n1 [Compound 1a.314]	99%					15%
COC(=O)/C=C(/OC)c1ccccc1CON=C(C)c1ccc(Cl)cc1 [Compound 1a.356, methyl2-[1-(4-chlorophenyl)ethylideneaminoxymethyl]-(E)-β-methoxycinnamate]				10%	15%	15%
